For this assay, the target named is T1, α7-subtype of nicotinic receptors (Rattus norvegicus, UniProt Q05941).
T1 construct: Cerebral cortices from male Wistar rats (150-250 g) are homogenised; from tissue; host or cells: rat cerebral cortex membrane homogenate (male Wistar rats)
Briefly: In vitro inhibition of 3H-α-bungarotoxine binding in rat brain. The conditions noted are these: rat cerebral cortex homogenate; 3H-α-bungarotoxine 2 nM; 2 hours at 37° C.

This is an account of results in patent US7750011B2, “Diazabicyclic aryl derivatives and their medical use” (Neurosearch A/S, priority 2005, dated 2010).

Counter-ions that a name gives are not always drawn.

T1 sequence (Q05941 23-502): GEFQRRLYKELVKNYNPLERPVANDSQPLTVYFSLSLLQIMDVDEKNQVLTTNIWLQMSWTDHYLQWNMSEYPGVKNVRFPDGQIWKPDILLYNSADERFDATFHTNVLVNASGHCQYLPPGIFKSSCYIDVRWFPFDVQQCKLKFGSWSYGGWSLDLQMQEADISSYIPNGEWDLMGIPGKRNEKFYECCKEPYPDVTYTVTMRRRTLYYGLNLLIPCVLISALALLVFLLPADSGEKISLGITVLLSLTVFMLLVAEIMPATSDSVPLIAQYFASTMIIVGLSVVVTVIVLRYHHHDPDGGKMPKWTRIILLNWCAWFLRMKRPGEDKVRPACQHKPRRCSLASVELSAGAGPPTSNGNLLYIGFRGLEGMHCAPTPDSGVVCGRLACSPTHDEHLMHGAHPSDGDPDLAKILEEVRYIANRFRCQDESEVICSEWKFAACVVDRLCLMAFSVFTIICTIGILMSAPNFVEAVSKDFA

By IC50 is commonly meant the midpoint of a concentration-inhibition curve. For `CN1C[C@@H]2C[C@H]1CN2c1ccc(C#Cc2ccccc2)nn1` [Compound 2, 2-Methyl-5-(6-phenylethynyl-pyridazin-3-yl)-(1S,4S)-2,5-diaza-bicyclo[2.2.1]heptane fumaric acid salt], the half-maximal inhibitory concentration (IC50) turned out to be 2000 nM.
